Measured values from patent US20100015249A1, “Antitumor agent containing 6'-amidino-2'-naphthyl 4-guanidinobenzoate or salt thereof” (priority 2005, published 2010).

What was measured:
MMP-9 = assay: Western blot of MMP-9 expression; assay type: cell-based, human; details: MDAPanc-28 cytoplasmic fraction, 0 or 80 μg/ml FUT
Method: Cytoplasmic fraction was prepared from the human pancreas cancer cell line […]-28 treated with either 0 μg/ml or 80 μg/ml of FUT. Western blot was performed for the obtained cytoplasmic proteins to examine MMP-2 and MMP-9 expression. More specifically, the experiment was performed by the method described in Example 2. Rabbit polyclonal anti-MMP-2 antibody, goat polyclonal anti-MMP-9 antibody and mouse anti-B-actin antibody (Santa Cruz Biotechnology, Inc.) were used for detection.

Murine fiber cells = assay: Effect on survival rate of normal cells; assay type: cell-based; details: 80 μg/ml
Text: Therefore, the present inventors next examined the effect of FUT treatment on normal cells. Murine fiber cells were used as normal cells.

caspase 8 = assay: Western blot of caspase 8 activation; assay type: cell-based, human
Method: The present inventors examined whether apoptosis signaling cascade is triggered with the elevation of TNFRI expression induced by FUT treatment, using caspase 8 as an indicator. Cytoplasmic fraction was prepared from the human pancreas cancer cell line MDAPanc-28 treated with various concentrations of FUT for 24 hours. Western blot was performed and subjected to the detection with anti-caspase 8 antibody (Santa Cruz Biotechnology) (FIG. 6-a). Western blot was performed to examine temporal changes in the expression of caspase 8, p-FADD, Bid and jBid under a constant concentration of FUT (80 μg/ml) at short intervals from 0 to 24 hours of treatment (FIGS. 6-b, 6-c and 6-d). Anti-FADD antibody was obtained from Santa Cruz Biotechnology and anti-Bid antibody was obtained from BD Pharmingen.
After the following treatment on the human pancreas cancer cell line MDAPanc-28, plasmatic compartment was prepared and Western blot was performed to examine the expression of phosphorylated FADD, caspase 8, NF-κB and IκBα. […] The same was true for IκBα expression (FIG. 7-c).

## N=C(N)c1ccc2cc(OC(=O)c3ccc(N=C(N)N)cc3)ccc2c1 [FUT, 6-amidino-2-naphthyl p-guanidinobenzoate dimethanesulfonate]
MMP-9
  MMP-9 expression: inhibited by FUT in a concentration-dependent manner
Murine fiber cells
  cell survival rate of normal cells: had no effect on cell survival rate
Caspase 8; MDAPanc-28, FUT 80 μg/ml pretreatment then TNF-α 5 ng/ml 24 hours, compared to FUT alone
  caspase 8 activation with TNF-α stimulation: enhanced FADD phosphorylation and caspase 8 activation
Caspase 8; MDAPanc-28, FUT 80 μg/ml, 0 to 24 hours
  caspase 8 activation over time: later on promoted caspase 8 activation
Caspase 8; MDAPanc-28, various concentrations of FUT for 24 hours
  caspase 8 activation: activated by FUT in a concentration-dependent manner
Caspase 8; cells with TNFRI expression downregulated using siRNA, after FUT treatment
  caspase 8 activation in TNFRI-downregulated cells: nor caspase 8 activation
